Test results from paper PMC8006935, “Study of Combinatorial Drug Synergy of Novel Acridone Derivatives With Temozolomide Using in-silico and in-vitro Methods in the Treatment of Drug-Resistant Glioma” (Frontiers in Oncology, 2021).
Read-outs that look alike come from different tables or passages of the source.

Legend:
[1] = set-up: method as in PMID 20925470; settings: high doses; cited from earlier work
[2] = tested on: U-87 (Uppsala 87) Glioma cell lines; test: Sulforhodamine B assay, U-87 drug sensitive Glioma cells; format: cell-based
Description: (§1) In order to test the growth inhibition potential of the TMZ and Acridone derivatives on Glioma, the U-87 (Uppsala 87) Glioma cell lines and T-98 (Temozolomide resistant) Glioma cell lines were treated with Temozolomide (TMZ) and Acridone derivatives AC2, AC7, and AC26. The African Green Monkey Kidney Vero cell lines were used as control for the study. The Vero cell lines were obtained from the National Center for Cell Sciences (NCCS), Pune, while the U-87 and T-98 cell lines were carried in the lab of Dr. GJ Peters, Cancer Center Amsterdam (CCA), VU University Medical Center, Amsterdam, Netherlands. The Mycoplasma testing was done by using the Universal Mycoplasma Detection Kit (ATCC® 30-1012K™) every 6 months. The Vero cell lines have been used as control as they are normal kidney epithelial cells and are non-cancerous in nature. The Vero cell lines have been routinely used for testing cytotoxicity of small molecules by various researchers ([22], [23]). Also, in our previous study, Vero cell lines have been used for testing safety and efficacy of Acridone derivatives for Lung, Cervical, and Breast Cancer studies ([13]).
(§2) Cell viability was found using the Sulforhodamine B (SRB) assay to measure the cellular protein content which provides better sensitivity in comparison to MTT assay ([24]). Moreover, as this method is dependent on the property of the SRB dye, it acts by binding to proteins under slightly acidic conditions and can be exposed to basic conditions for its extraction. The resulting amount of bound dye is then utilized as a proxy for cell mass ([25]). This cell mass can then be extrapolated to measure cell growth.
(§3) Glioma cells were cultured in Gibco (RPMI 1640) complemented with 10% fetal calf serum (Gibco). The cultures were then treated with trypsin-EDTA in order to detach/separate the cells from their culture flasks. The quickly proliferating cells were harvested, counted and plated at suitable concentrations in 96-well microplates. These microplates were subsequently incubated for 24 h. After incubation, drug compounds were dissolved in the culture media and placed in 96 well plates in triplicates, which were again incubated at 37°C under 5% CO2 for 72 h. 72 h later, the plates were removed and the cells were treated with cold Trichloroacetic acid (TCA) to fix the cultures and. 0.4% of SRB dissolved in 1% acetic acid was then added to the culture in order to stain the cells. Next, the bound stain was dissolved in 150 μl of 10 mM unbuffered Tris base left on a gyrator shaker. Thereafter, absorbance of the solution was measured at 540 nm utilizing a microplate reader. Absorbance readings (triplicate values) recorded were used to calculate percentage growth inhibition due to the effect of drugs using the following equations.
(§4) % Cell growth = Absorbance sample/Absorbance of control or untreated × 100
(§5) % Growth inhibition = 100 - % cell growth
(§6) The IC50 was calculated based on the log graph sheet which was developed in-house at the CCA, VU University Medical Center.
(§7) Selectivity Index (SI) is a ratio that measures the window between cytotoxicity and anticancer activity of the drugs ([26]). […] Here, IC50 is the inhibition concentration for inhibiting 50% of cancer cells and CC50 is cytotoxic concentration causing death of 50% viable cells in the host.

[3] = tested on: Drug resistant cancer cells (CR), T-98; test: Mathematical tumor growth model simulation and Bliss synergy, drug resistant cancer cells
[4] = Sulforhodamine B assay, Vero control cells; format: cell-based; settings: African green monkey, Vero cells (normal kidney epithelial cells), SRB, read-out: Vero cell Line CC50
Description: as §1, §2
as §3, with “0.4% of SRB dissolved in 1% acetic acid was then added to the culture in order to stain the cells. Next, the bound stain was dissolved in 150 μl of 10 mM unbuffered Tris base left on a gyrator shaker.” left out
% Cell growth = Absorbance sample/Absorbance of control or untreated × 100 […]
The IC50 was calculated based on the log graph sheet which was developed in-house at the CCA, VU University Medical Center. […]

[5] = set-up: method as in PMID 18971416; settings: equation proposed by Levin-log permeability; cited from earlier work
[6] = tested on: T-98 (Temozolomide resistant) Glioma cell lines; test: Sulforhodamine B assay, T-98 TMZ resistant Glioma cells; format: cell-based; settings: for IC50: Glioma cell
Description: as §1, §2, §3, §4, §5, §6, §7

Glioma = tested on: Glioma; set-up: method as in PMID 19046047; settings: administered along with surgery and radiotherapy; cited from earlier work
[7] = SI = CC50 of Vero cell line /IC50 of Cancer cell line after 72 h

Cn1nnc2c(C(N)=O)ncn2c1=O [TMZ, 3-Methyl-4-oxo-3,4-dihydroimidazo[5,1-d][1,2,3,5]tetrazine-8-carboxamide]
dose leading to severe toxicity [1]: more than 250 μM | U-87/WT SI [2, 7]: 20.66 | Relative growth, experimental data for U-87 cell line ([2]; TMZ dose 0.5): 98.47% | Relative growth, experimental data for U-87 cell line ([2]; TMZ dose 1): 97.76% | Relative growth, experimental data for U-87 cell line ([2]; TMZ dose 2.5): 97% | Relative growth, experimental data for U-87 cell line ([2]; TMZ dose 5): 94.93% | Relative growth, experimental data for U-87 cell line ([2]; TMZ dose 10): 87.32% | Relative growth, experimental data for U-87 cell line ([2]; TMZ dose 25): 50.41% | Relative growth, experimental data for U-87 cell line ([2]; TMZ dose 50): 47.71% | Relative growth, experimental data for U-87 cell line ([2]; TMZ dose 100): 40.87% | IC50 ([2]; U87WT, 72 h, SRB, Mean ± Standard Deviations in Table 4, read-out: U-87/WT IC50): 23.3 ± 7.57 µM | % fold change [(final-initial)/initial]*100 ([3]; combination TMZ + AC2): 80.8% | Fold change = final IC50/initial IC50 ([3]; combination TMZ + AC2): 0.19 | % fold change [(final-initial)/initial]*100 ([3]; combination TMZ + AC7): 75.68% | Fold change = final IC50/initial IC50 ([3]; combination TMZ + AC7): 0.24 | Fold change = final IC50/initial IC50 ([3]; combination TMZ + AC26): 0.54 | CC50 at 72 h [4]: 482 µM | brain capillary permeability [5]: ~2.7 ×10⁻⁶ cm/s | IC50 ([6]; 72 h, SRB, Mean ± Standard Deviations in Table 4, read-out: T-98/TMZRES IC50): > 100 µM | IC50 ([6]; drug administered individually, drug resistant cells, read-out: Initial IC50): 190 µM | T-98/TMZRES SI [6, 7]: 2.53 | Relative growth, experimental data for T-98 cell line ([6]; TMZ dose 0.5): 98.26% | Relative growth, experimental data for T-98 cell line ([6]; TMZ dose 1): 97.74% | Relative growth, experimental data for T-98 cell line ([6]; TMZ dose 2.5): 96.65% | Relative growth, experimental data for T-98 cell line ([6]; TMZ dose 5): 95% | Relative growth, experimental data for T-98 cell line ([6]; TMZ dose 10): 87.43% | Relative growth, experimental data for T-98 cell line ([6]; TMZ dose 25): 61.98% | Relative growth, experimental data for T-98 cell line ([6]; TMZ dose 50): 52.77% | Relative growth, experimental data for T-98 cell line ([6]; TMZ dose 100): 50.87% | increase of survival advantage (Glioma): 2.5 times
